In US10118947B2, “Modulation of structured polypeptide specificity” (BICYCLE THERAPEUTICS LIMITED, priority 2013, dated 2018):
Where two headings read alike, the source gives them in different places. Blank lines part the entries; values can stand above or below the compound they belong to. Numbered stars: 1 amine (or outer) side, 2 acyl side, 3 side chain; on linkers, the order of the positions; unused ones are H or OH. Bridge positions count the residues as written; N and C are the ends. Square brackets hold non-standard residues; d marks the D form. Peptide text beside a SMILES is read from it. TBMB = c1c(C[*:1])cc(C[*:3])cc1C[*:2]; hArg = N=C(N)NCCCC[C@H](N)C(=O)O; Aze = O=C(O)[C@@H]1CCN1

What was measured:
[1] = Plasma stability profiling Method #1 (MALDI-TOF, 35% plasma), human plasma; assay type: in vitro ADME; settings: MALDI TOF assay (Methods #1 and #2), t=0, 21 and 46 hrs
Experimental: A rapid plasma stability profiling assay was developed that employed mass spectrometric detection (MALDI-TOF, Voyager DE, Applied Biosystems) of the parent mass, until the time when the parent peptide mass was no longer observable. Specifically, 200 uM of peptide was incubated in the presence of 35% rat or human plasma (Sera labs, using citrate as anticoagulant) at 37 deg C., which was supplemented with 1×PBS (derived from a 10×PBS Stock, Sigma). […] Samples were frozen at −80 deg C. until the time of analysis. For mass spectrometric analysis that determines the approximate detection window of the peptide, the acetonitrile:H2O-diluted sample of a given time point was spotted directly (0.7 uL) onto the MALDI plate. Matrix (alpha-cyanocinnamic acid, Sigma, prepared as a saturated solution in 1:1 acetonitrile:water containing 0.1% trifluoroacetic acid) was layered over the sample (1 uL). At a similar laser intensity setting on the MALDI TOF, the time could then be determined until parent peptide was no longer detectable. It should be noted that this is a qualitative assay serves to detect relative changes in plasma stability.

[2] = Plasma stability profiling Method #1 (MALDI-TOF, 35% plasma), rat plasma; assay type: in vitro ADME; settings: for stability in rat plasma compared to wildtype peptide: MALDI TOF assay (Methods #1 and #2), t=0, 21 and 46 hrs
Summary of the method: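 Qualitative test: 200 µM peptide incubated at 37 °C in 35% rat or human citrated plasma supplemented with PBS, sampled at 0, 3, 24 h then daily up to 10 days. Parent mass tracked by MALDI-TOF; value is time until parent peptide no longer detectable.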

[3] = Intravenous pharmacokinetics in Sprague Dawley rats; assay type: in vivo; settings: rat; for half-life: iv, 5.2 mg/kg
Experimental: Peptides were applied as intravenous boli in PBS-buffered solution at 1.02 mg/mL (containing 2.9% DMSO) at 5.2 mg/kg to Sprague Dawley rats, and serial blood samples were taken from each animal via temporary indwelling tall vein cannulae at 5, 10, 20, 30, 60, 120, and 240 minutes post dose, and transferred to EDTA tubes for plasma generation. Data was acquired for peptide “all D Ac-06-34-18” from 3 rats, for “Ac-(06-34-18) Phe2 Aze3 Tyr4 HArg5 Ala(ψCH2NH)6” from two rats, and for “Ac-(06-34-18) Phe2 Aze3 Tyr4 HArg5 D-Asp9” from two rats.
Plasma samples were then treated with 3 volumes of a 1:1 mixture of acetonitrile and methanol, precipitated proteins were removed by centrifugation, and the supernatant was analysed by UPLC-MS/MS.
Quantification for peptide content in the samples was by reference to a calibration line prepared in control rat plasma. Pharmacokinetic parameters were determined by non-compartmental analysis using the software package PK Solutions 2.0 from Summit Research Services.

human plasma Kallikrein [4] = molecular target: T1, human plasma Kallikrein (Homo sapiens, UniProt P03952); assay: Functional enzyme inhibition assay with fluorogenic substrate Z-PheArg-AMC, human plasma Kallikrein; assay type: biochemical; settings: for F (Kivar/KiWT): ratio of Ki to wild type
T1 construct: purchased Stratech, UK
Summary of the method: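 Human plasma kallikrein at 26.5 pM was preincubated 15 minutes with test peptide in Tris/NaCl/MgCl2/CaCl2/BSA buffer pH7.4 at 25° C, then Z-PheArg-AMC added to 100 μM final in 4% DMSO.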

rat plasma Kallikrein [5] = molecular target: T2, rat plasma Kallikrein (Rattus norvegicus, UniProt P14272); assay: Functional enzyme inhibition assay with fluorogenic substrate Z-PheArg-AMC, rat plasma Kallikrein; assay type: biochemical; settings: Table 26b, loop 1 and loop 2 modified derivatives
T2 construct: polyhistidine tag (N, cleaved yes); proTEV cleavage site (pro-peptide linker) (N, cleaved yes); made in house; host or cells: HEK-293 (suspension-adapted)
Experimental: Functional enzyme assays were conducted in 10 mM Tris HCl, 150 mM NaCl, 10 mM MgCl2, 1 mM CaCl2) and 1 mg/mL BSA (all Sigma UK) pH7.4 at 25° C. in solid black 96 well plates. Briefly 26.5 pM human plasma Kallikrein (purchased from Stratech, UK) or 500 pM rat plasma Kallikrein (expressed and purified in house) were incubated in the absence or presence of increasing concentrations of test peptide for 15 minutes before addition of the fluorogenic substrate Z-PheArg-AMC (Enzo Lifesciences UK) to a final assay concentration of 100 μM in 4% DMSO. Release of AMC was measured using a Pherastar FS (BMG Labtech), excitation 360 nm, emission 460 nm. The rate of the linear phase of the reaction, typically 5 to 45 minutes, was calculated in MARS data analysis software (BMG labtech). The rate was then used to calculate the IC50 and Ki in Prism (GraphPad). A four parameter inhibition non-linear regression equation was used to calculate the IC50.
Peptides were dissolved as the TFA-salts in their powder form, and stock solutions were usually prepared in water. All solutions were centrifuged and filtered ([…] syringe filters) prior absorption measurement at 280 nm. Extinction coefficients were calculated based on the Trp/Tyr content of the peptide, and that of TMB (the TMB core, when contained in a peptide, has an ε of ˜300 M^−1cm^−1). For peptides containing non-natural amino acids with suspected chromophoric properties (i.e. NorHar, 4PhenylPro, 3Pal, 4Pal, Tic, 4GuanPhe, 4,4-BPAI, 3,3-DPA, 1NAI, 2NAI, 4BenzylPro, Ind) concentrations were determined by weighing the powder and dissolving the peptide in a defined quantity of water.

rat plasma Kallikrein [6] = molecular target: T2, rat plasma Kallikrein
human plasma Kallikrein [7] = molecular target: T1, human plasma Kallikrein; settings: Table 1, as disclosed in PCT/EP2012/069898; cited from earlier work
[8] = Quantitative plasma stability Method #3 (LC-MS, 95% plasma), rat plasma; assay type: in vitro ADME; settings: for half-life at 5 uM: rat, plasma
Experimental: (§1) To obtain plasma stability quantitatively, peptide stock solutions (1 mM in DMSO) were shipped to Biofocus, UK, who performed the analysis. Peptides were diluted to 100 uM with water, and diluted 1:20 in plasma (5 uM final concentration, with the plasma at 95%), sampled as appropriate, precipitated as above, and quantified using a Waters Xevo TQ-MS.

[9] = Table 1; Method #3; cited from earlier work
[10] = Table 1; Method #1; cited from earlier work
[11] = Plasma stability / fragment profiling Method #2 (MALDI-TOF, 95% plasma), human plasma; assay type: in vitro ADME
Summary of the method: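 Peptide at 50 uM final in 95% human plasma without PBS; timed samples frozen at −80 °C, then extracted with 1:1 acetonitrile:methanol. Supernatant mixed with 30 mM ammonium bicarbonate and analysed by MALDI-TOF; qualitative fragment profiling of relative stability over time.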

[12] = Quantitative plasma stability Method #3 (LC-MS, 95% plasma), human plasma; assay type: in vitro ADME; settings: Table 2, ex vivo human plasma, read-out: Human Plasma Stability (t½ in hrs) (converted)
Experimental: as §1

human PK (hPK) = human PK (hPK) (Homo sapiens, UniProt P03952); settings: cited from earlier work
factor XIa (hfXIa) = factor XIa (hfXIa) (Homo sapiens, UniProt P03951); settings: highest concentration tested (10 μM); cited from earlier work
thrombin = thrombin (Homo sapiens, UniProt P00734); settings: highest concentration tested (10 μM); cited from earlier work
rat PK = rat PK (Rattus norvegicus, UniProt P14272); settings: highest concentration tested (10 μM); cited from earlier work
[13] = Sprague Dawley, plasma, intravenous bolus 5.2 mg/kg, read-out: elimination half-life
[14] = Sprague Dawley, plasma, intravenous, read-out: t1/2 elimination

T1 sequence (P03952 20-638): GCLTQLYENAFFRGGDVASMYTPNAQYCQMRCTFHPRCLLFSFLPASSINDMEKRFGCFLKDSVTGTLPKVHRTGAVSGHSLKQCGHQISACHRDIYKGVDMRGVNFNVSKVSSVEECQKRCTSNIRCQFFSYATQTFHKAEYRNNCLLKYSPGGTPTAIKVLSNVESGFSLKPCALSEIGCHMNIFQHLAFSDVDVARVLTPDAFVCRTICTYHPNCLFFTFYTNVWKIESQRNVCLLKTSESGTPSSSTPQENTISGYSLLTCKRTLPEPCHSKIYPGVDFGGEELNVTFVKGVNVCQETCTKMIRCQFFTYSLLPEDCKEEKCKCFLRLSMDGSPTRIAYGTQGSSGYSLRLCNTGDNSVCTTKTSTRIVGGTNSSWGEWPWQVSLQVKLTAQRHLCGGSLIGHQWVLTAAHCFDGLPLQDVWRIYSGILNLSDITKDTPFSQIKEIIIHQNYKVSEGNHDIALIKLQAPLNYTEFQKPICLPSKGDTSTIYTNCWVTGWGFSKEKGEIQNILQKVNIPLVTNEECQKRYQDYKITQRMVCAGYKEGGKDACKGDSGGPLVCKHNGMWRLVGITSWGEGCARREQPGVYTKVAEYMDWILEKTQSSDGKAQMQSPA
T2 sequence (P14272 391-638 limits assumed): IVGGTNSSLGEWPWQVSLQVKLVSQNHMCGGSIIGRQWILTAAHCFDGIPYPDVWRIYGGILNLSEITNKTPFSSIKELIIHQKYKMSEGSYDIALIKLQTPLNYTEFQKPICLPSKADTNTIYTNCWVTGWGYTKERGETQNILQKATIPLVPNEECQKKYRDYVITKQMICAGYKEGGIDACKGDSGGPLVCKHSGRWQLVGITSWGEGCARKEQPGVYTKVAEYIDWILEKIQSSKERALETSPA
Sequence of human PK (hPK) (P03952 20-638): as the sequence (P03952 20-638) above
Sequence of rat PK (P14272 20-638): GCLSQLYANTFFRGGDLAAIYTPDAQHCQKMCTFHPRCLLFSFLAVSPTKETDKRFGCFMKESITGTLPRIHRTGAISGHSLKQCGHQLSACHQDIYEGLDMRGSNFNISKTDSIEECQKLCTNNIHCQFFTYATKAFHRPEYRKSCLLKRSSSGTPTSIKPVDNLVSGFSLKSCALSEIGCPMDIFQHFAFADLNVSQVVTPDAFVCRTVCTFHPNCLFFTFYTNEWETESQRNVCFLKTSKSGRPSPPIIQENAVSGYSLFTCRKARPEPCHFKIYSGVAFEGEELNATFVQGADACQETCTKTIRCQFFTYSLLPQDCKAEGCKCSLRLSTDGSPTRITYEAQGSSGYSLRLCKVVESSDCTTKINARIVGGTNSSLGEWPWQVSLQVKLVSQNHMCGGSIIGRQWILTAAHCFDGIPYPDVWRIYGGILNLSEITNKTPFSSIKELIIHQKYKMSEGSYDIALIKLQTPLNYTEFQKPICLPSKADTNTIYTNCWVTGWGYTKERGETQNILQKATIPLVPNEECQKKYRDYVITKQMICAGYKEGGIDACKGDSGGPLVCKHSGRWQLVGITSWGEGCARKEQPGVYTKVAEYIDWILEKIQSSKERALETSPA
Sequence of factor XIa (hfXIa) (P03951 388-625 limits assumed): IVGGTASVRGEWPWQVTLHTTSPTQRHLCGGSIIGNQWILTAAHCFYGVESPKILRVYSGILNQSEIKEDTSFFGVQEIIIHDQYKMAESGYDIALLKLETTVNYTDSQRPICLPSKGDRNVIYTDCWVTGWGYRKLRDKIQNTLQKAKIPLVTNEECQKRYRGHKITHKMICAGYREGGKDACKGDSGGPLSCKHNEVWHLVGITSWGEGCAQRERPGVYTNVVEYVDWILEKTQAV
Sequence of factor XIa (hfXIa) (P03951 19-387 partner limits assumed): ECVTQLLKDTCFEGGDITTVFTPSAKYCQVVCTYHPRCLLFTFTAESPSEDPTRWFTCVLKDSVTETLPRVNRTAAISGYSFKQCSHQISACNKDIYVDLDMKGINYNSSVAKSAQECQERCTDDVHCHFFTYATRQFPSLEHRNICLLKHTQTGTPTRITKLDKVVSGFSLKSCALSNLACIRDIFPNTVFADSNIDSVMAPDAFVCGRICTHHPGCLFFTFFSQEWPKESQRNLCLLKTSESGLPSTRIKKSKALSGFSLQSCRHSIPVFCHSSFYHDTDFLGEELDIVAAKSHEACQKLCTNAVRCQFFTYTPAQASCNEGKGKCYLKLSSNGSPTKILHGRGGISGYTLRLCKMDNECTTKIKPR

- stability in human plasma compared to wildtype peptide [1]: remarkably enhanced stability
- stability in rat plasma compared to wildtype peptide [2]: remarkably enhanced stability
- clearance ([3]; Sprague Dawley, plasma, intravenous bolus 5.2 mg/kg): 5.8 mL/min/kg
- half-life [3, 13]: 48 min
- half-life [3, 14]: 48 min
- Clearance based on AUC0-∞ ([3]; intravenous): 6.2 mL/min/kg
- Volume of distribution based on AUC0-∞ ([3]; intravenous): 0.44 L/kg
Compound: CC(=O)N[C@H]1CSCc2cc3cc(c2)CSC[C@H](NC(=O)[C@H](CCCCNC(=N)N)NC(=O)[C@H](Cc2ccc(O)cc2)NC(=O)[C@@H]2CCN2C(=O)[C@H](Cc2ccccc2)NC(=O)[C@H](CO)NC1=O)C(=O)N[C@@H](C)CN[C@@H](Cc1c[nH]cn1)C(=O)N[C@@H](CCC(N)=O)C(=O)N[C@@H](CC(=O)O)C(=O)N[C@@H](CC(C)C)C(=O)N[C@H](C(N)=O)CSC3

- Ki (human plasma Kallikrein [4]; Table 26b, loop 1 and loop 2 modified derivatives, read-out: Ki (nM) (human kallikrein)): 0.9 nM
- stability in human plasma compared to wildtype peptide [1]: remarkably enhanced stability
- Ki (rat plasma Kallikrein [5]): 14 nM
- stability in rat plasma compared to wildtype peptide [2]: remarkably enhanced stability
- half-life [3, 13]: ~27 min
- half-life [3, 14]: 27 min
Compound: CC(=O)N[C@H]1CSCc2cc3cc(c2)CSC[C@H](NC(=O)[C@H](CCCCNC(=N)N)NC(=O)[C@H](Cc2ccc(O)cc2)NC(=O)[C@@H]2CCN2C(=O)[C@H](Cc2ccccc2)NC(=O)[C@H](CO)NC1=O)C(=O)N[C@@H](CC(C)C)C(=O)N[C@@H](Cc1c[nH]cn1)C(=O)N[C@@H](CCC(N)=O)C(=O)N[C@H](CC(=O)O)C(=O)N[C@@H](CC(C)C)C(=O)N[C@H](C(N)=O)CSC3 (Ac-CSF[Aze]Y[hArg]CLHQ[dD]LC-NH2; linker 1-7-13 via TBMB)

Compound: CC(=O)N[C@H]1CSCc2cc3cc(c2)CSC[C@H](NC(=O)[C@H](Cc2ccc(NC(=N)N)cc2)NC(=O)[C@H](C)NC(=O)[C@@H]2CCCN2C(=O)[C@H](Cc2c[nH]c4ccccc24)NC(=O)[C@H](CO)NC1=O)C(=O)N[C@@H](CC(C)C)C(=O)N[C@@H](Cc1c[nH]cn1)C(=O)N[C@@H](CCC(N)=O)C(=O)N[C@@H](CC(=O)O)C(=O)N[C@@H](CC(C)C)C(=O)N[C@H](C(N)=O)CSC3 [Ac-(06-34-18) 4GuanPhe5]
- reduction in potency/affinity compared to wildtype (human plasma Kallikrein [4]): 2 fold
- Ki (human plasma Kallikrein [4]; Table 15, read-out: Ki (nM) (human kallikrein)): 0.34 nM
- Ki (rat plasma Kallikrein [6]; Table 1; read-out: Ki (nM) (rat kallikrein); cited from earlier work): 3 nM
- Ki (human plasma Kallikrein [7]): 0.34 nM
- half-life at 5 uM ([8]; Table 15, method #3, read-out: t1/2 (hrs) in rat plasma (converted)): 2.8 h
- t1/2 (hrs) in rat plasma [9]: 2.8 h

Compound: CC(=O)N[C@H]1CSCc2cc3cc(c2)CSC[C@H](NC(=O)[C@H](CCCNC(=N)N)NC(=O)[C@H](Cc2ccc(O)cc2)NC(=O)[C@@H]2CCCN2C(=O)[C@H](Cc2ccccc2)NC(=O)[C@H](CO)NC1=O)C(=O)N[C@@H](CC(C)C)C(=O)N[C@@H](Cc1c[nH]cn1)C(=O)N[C@@H](CCC(N)=O)C(=O)N[C@@H](CC(=O)O)C(=O)N[C@@H](CC(C)C)C(=O)N[C@H](C(N)=O)CSC3 [Ac-(06-34-18) Phe2 Tyr4] (Ac-CSFPYRCLHQDLC-NH2; linker 1-7-13 via TBMB)
- Ki (human plasma Kallikrein [4]; Ki (nM) (human kallikrein), Table 26a, loop2 stability enhanced candidates): 0.9 nM
- Ki (human plasma Kallikrein [4]; Ki (nM) human Kai, Table 2): 0.42 nM
- F (Kivar/KiWT) (human plasma Kallikrein [4]; Table 3a): 1
- F (Kivar/KiWT) (human plasma Kallikrein [4]; Table 24b): 1
- Observable in rat plasma, for days [10]: 2 days
- Ki (rat plasma Kallikrein [6]; read-out: Ki (nM) (rat kallikrein); Table 1; cited from earlier work): 7.6 nM
- Fragments (human plasma) ([11]; Table 3a, peptide fragments observed after incubation in human plasma): -LHQ
- degradation / fragments in human plasma (in words) ([11]; running text and figure legends): fragments with His7-Gln8, Leu6, and Leu6-His7-Gln8 removed
- Rat Plasma Stability (t½ in hrs) ([8]; Table 2, ex vivo rat plasma, Method #3): 54 min
- t1/2 (hrs) in rat plasma ([8]; Table 23, method #3): 0.9 h
- half-life at 5 uM ([8]; method #3, read-out: half-life in rat plasma (t1/2) (converted)): 0.9 h
- half-life at 5 uM [12]: 84 min
- Observable in rat plasma, for days ([2]; Table 21, method #1): 2 days
- Observable in rat plasma, for days ([2]; Table 23, comparative stabilities estimated according to method #1): 2 days
- t1/2 (hrs) in rat plasma [9]: 0.9 h

Compound: H-ACSDRFRNCPADEALCG-NH2 [PK15]
- Ki (human PK (hPK); Heinis et al. 2009, read-out: Kl human PK (hPK)): 3 nM
- IC50 (human PK (hPK); background, read-out: IC50 binding constant for human Kallikrein): 1.7 nM
- inhibition of factor XIa (hfXIa) (factor XIa (hfXIa)): did not inhibit
- inhibition of thrombin (thrombin): did not inhibit
- inhibition of rat PK (rat PK): did not inhibit
